System: Xanthomonas alfalfae
Test: Alamar Blue assay for antimicrobial activity (FIG. 11)
Assay type: cell-based
Conditions: metallic zinc concentration as low as 50 PPM, components at relevant concentrations
From the text: FIG. 11A, FIG. 11B, FIG. 11C and FIG. 11D show a series of images illustrating Alamar Blue assay in accordance with the embodiments. […] It is to be understood that this disclosure is not limited to the foregoing particular embodiments described, as such may, of course, vary. It is also to be understood that the terminology used herein is for the purpose of describing particular embodiments only, and is not intended to be limiting, since the scope of the present disclosure will be limited only by the appended claims.

| Structure (SMILES) | antimicrobial effect against Xanthomonas alfalfae |
| --- | --- |
| [Zn+2] [divalent zinc ion] | did not elicit similar effect |
| OO [hydrogen peroxide] | did not elicit similar effect |
| NC(N)=O [urea] | did not elicit similar effect |
